Holding throughout (test): NCI tumour cell line growth inhibition, 48 h
Test [1] concerns MDA-N.
The test system of test [2] is LXFL 529.
In test [3] the test system is XF498.
For test [4], the system named is KM-20L2.
Test [5] has as its system SNB-78.
Test [6] has as its system DMS-114.
The test system of test [7] is DMS-273.
Test [8] deals with HOP-18.

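1) Cells in 96-well plates. 2) Compound, 48 h, 5 concentrations. 3) Linear interpolation between surrounding doses. 4) Unreached endpoint = highest concentration. GI50 marks 50% less growth.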 Active and inactive are the calls of the source. Cut-off read from the data, not from the text of the source: active = GI50 up to about 1.1 µM and inactive = higher.

Consider `CCC1(O)CN(CCOC)[C@H]2C[C@@H]1C(=O)c1[nH]c3ccccc3c12` (some centres undefined), for which the GI50 in test [1] is > 100 µM (inactive).
Regarding `Cc1cc(NS(=O)(=O)c2ccc(Nc3c4ccccc4nc4c(C(=O)NCCN(C)C)cccc34)cc2)no1`, the GI50 in test [2] is 3.6 µM (inactive); in test [3] it was 18.3 µM (inactive); in test [4], 26.4 µM (inactive); in test [5] it was 12.7 µM (inactive); in test [6] it was 0.713 µM (active); in test [7], 2.86 µM (inactive).
With `CN(C)CCCN1C(=O)N(CCCN(C)C)c2c3cc(O)ccc3nc3c([N+](=O)[O-])ccc1c23`, the GI50 in test [1] is 37.3 µM (inactive).
For `CC/C=C/C[C@H](O[Si](C)(C)C(C)(C)C)[C@H]1C[C@H]2O[C@H]([C@@H](O)C#C[Si](C)(C)C)C[C@H]2O1`, the GI50 in test [1] was 12.2 µM (inactive).
For the compound `CC(=O)Nc1ccc(S(=O)(=O)N=S(C)C)cc1`, the GI50 in test [1] is > 100 µM (inactive).
For the compound `CCN1CCCc2cc3c(C(F)(F)F)cc(=O)oc3cc21`, the GI50 in test [1] is > 100 µM (inactive).
Turning to `COc1ccc(C2C=C(c3ccccc3)Nc3nnnn32)cc1` (centres undefined), the GI50 in test [1] was 45.1 µM (inactive).
In the case of `CC(=O)O[C@]12CCCCC1C1(O)C(O)CCCC[C@H]12` (some centres undefined), the GI50 in test [2], in test [4], in test [8], in test [5], in test [6] and in test [7] was > 100 µM (inactive) each time.
For the compound `CC1=C(C(=O)NC2CCCCC2)CC(C(=O)NC2CCCCC2)=C(C)N1`, in test [1], the GI50 was > 100 µM (inactive).
Take `COc1ccc(NC(=O)C(C#N)=C(SC)SC)cc1`: the GI50 in test [1] is > 100 µM (inactive).
The same measure, in the same setting: the figure for `O=C(c1ccccc1)c1c(-c2ccccc2)[nH]n(-c2ccc([N+](=O)[O-])cc2)c(=O)c1=O` is > 100 µM (inactive).
Consider `CC(=O)OC12C=CC(=O)N1c1ccccc1C(=O)O2` (centres undefined), for which the GI50 was > 100 µM (inactive) in test [2]; > 100 µM (inactive) in test [3]; > 100 µM (inactive) in test [4]; > 100 µM (inactive) in test [8]; 32.1 µM (inactive) in test [5]; > 100 µM (inactive) in test [7].
Take `CC1=NN(C(=O)CC(=O)Nc2cccc(C)c2)C(=O)C1/N=N/c1ccc(S(=O)(=O)CCOS(=O)(=O)O)cc1` (centres undefined): in test [1], the GI50 was 0.309 µM (active).
As to `O=C(CCCl)NN=C1NCCCN1`, the GI50 in test [1] was > 100 µM (inactive).
For `NC(=O)C(=O)N/N=C(\CC1(O)C(=O)Nc2ccccc21)c1ccc2ccccc2c1` (centres undefined), the GI50 was 31.5 µM (inactive) in test [2]; 30.5 µM (inactive) in test [3]; 46.3 µM (inactive) in test [8]; 72.9 µM (inactive) in test [5]; 21.3 µM (inactive) in test [6]; 28.2 µM (inactive) in test [7].
For `CC(Cc1ccc2c(c1)OCO2)N(C)C(=O)C1=CCN(C)CC1` (centres undefined), the GI50 in test [1] was > 100 µM (inactive).
Consider `Oc1nc(CC(O)c2ccc(Cl)c(Cl)c2)cc(-c2ccccc2)n1` (centres undefined), for which the GI50 was > 100 µM (inactive) in test [2]; 60 µM (inactive) in test [4]; > 100 µM (inactive) in test [8]; 38.9 µM (inactive) in test [6]; > 100 µM (inactive) in test [7].
Turning to `COC(=O)CCc1cc(O)c2c(c1)C(C(=O)OC)C(c1ccc(O)c(O)c1)O2` (centres undefined), the GI50 in test [1] was 1.9 µM (inactive).
Consider `CCOC(=O)/C(=C/c1ccc(N(C)C)cc1)N(CC)CC`, for which the GI50 is 34.6 µM (inactive) in test [2]; > 100 µM (inactive) in test [3]; > 100 µM (inactive) in test [4]; 69.3 µM (inactive) in test [5]; 54 µM (inactive) in test [6].
`COc1cc(/N=C\N(C)C)c2ncccc2c1`: the GI50 in test [1] was 20.4 µM (inactive).
Regarding `CSc1c(C#N)c(N)n(-c2ccc(C)cc2)c(=O)c1C#N`, in test [1], the GI50 is > 100 µM (inactive).
`Cc1c(Cl)c(S(N)(=O)=O)cc(S(N)(=O)=O)c1NC(=O)c1ccc(Cl)cc1`: in test [1], the GI50 was > 100 µM (inactive).
For `NC(=O)c1[nH]nc(C2OC(CO)C(O)C2O)c1O` (centres undefined), the GI50 is 3.39 µM (inactive) in test [1]; 71.9 µM (inactive) in test [3]; 2.76 µM (inactive) in test [4]; 43 µM (inactive) in test [8]; 37.7 µM (inactive) in test [5]; 19.9 µM (inactive) in test [6]. Moreover, in test [7], the GI50 is 0.713 µM (active).
`Cc1cc(C)c2c(=O)n(CN3CCN(c4ccccc4)CC3)sc2n1`: the GI50 in test [1] was 23.7 µM (inactive).
On the same count and under the same terms, the result for `O=C(O)[C@@H]1[C@H](C(=O)O)[C@H](C(=O)O)C[C@@H]1C(=O)O` reads > 100 µM (inactive).
The same measure, in the same setting: the result for `O=C(O[C@H](/C=C/c1ccccc1)P1(=O)N(Cc2ccccc2)[C@H]2CCCC[C@@H]2N1Cc1ccccc1)c1ccccc1` reads 3.52 µM (inactive).
Consider `CC1C=C[C@H](Sc2ccccc2)CC[C@@]1(C)O` (some centres undefined), for which the GI50 was 99.3 µM (inactive) in test [2], > 100 µM (inactive) in test [4], > 100 µM (inactive) in test [5] and 55.8 µM (inactive) in test [6].
As to `COc1ccc(CNc2nc3cc(C(F)(F)F)ccc3nc2C(=O)O)cc1`, in test [1], the GI50 is 27.7 µM (inactive).
As for `COC(=O)C1[C@@H](C(=O)OC)C12C=Cc1ccccc1C=C2` (some centres undefined), the GI50 in test [2] was > 100 µM (inactive); in test [3], 51.6 µM (inactive); in test [4], > 100 µM (inactive); in test [5], > 100 µM (inactive); in test [6] it was > 100 µM (inactive); in test [7], > 100 µM (inactive).
As to `CCOC(=O)C(Cl)(NC(=O)c1c(F)c(F)c(F)c(F)c1F)C(F)(F)F` (centres undefined), the GI50 in test [1] is > 100 µM (inactive).
Turning to `COc1ccc(C2c3cc4c(cc3OC(N3CCOCC3)C2C)OCO4)cc1OC` (centres undefined), in test [1], the GI50 is 1.86 µM (inactive).
Take `CC(C)C1=CC2=C(C(=O)C1=O)C13CCCC(C)(C)C1CC2OC3=O` (centres undefined): the GI50 in test [1] is 17.9 µM (inactive).
Regarding `Cc1cccc(NC(=O)C(=O)C2C(=O)NC(=O)NC2=O)c1C`, the GI50 in test [2], in test [4], in test [8], in test [5], in test [6] and in test [7] was > 100 µM (inactive) in each case.
On to `O=C(Nc1ccccc1SC(/C=C/NNC1=NN=C(c2ccccc2)C(c2ccccc2)N1)c1ccccc1)c1ccc(Cl)cc1Cl` (centres undefined), for which the GI50 is > 10 µM (inactive) in test [3]; > 100 µM (inactive) in test [4]; 87.5 µM (inactive) in test [5]; 45.1 µM (inactive) in test [6]; 41.6 µM (inactive) in test [7].
As for `COc1ccc2cc(CNCCCCCCNCc3ccc4cc(OC)ccc4c3)ccc2c1`, the GI50 in test [1] was 0.183 µM (active).
On the same count and under the same terms, the result for `C=C(Br)CN(CC(=C)Br)C(C)=O` reads > 100 µM (inactive); that for `Cc1ccc2c(c1C)C(=O)/C(=C/c1ccccc1C(=O)O)C2`, > 100 µM (inactive); that for `CN(C)c1ccc(C2SCC(=O)N2c2nc3cc4sc(N5C(=O)CSC5c5ccc(N(C)C)cc5)nc4cc3s2)cc1` (centres undefined), 45.2 µM (inactive).
For the compound `C=CCCC(C)N(C(=O)OC(C)(C)C)S(=O)(=O)c1ccc(C)cc1` (centres undefined), the GI50 in test [2], in test [3], in test [4], in test [5] and in test [7] was > 100 µM (inactive) throughout.
On to `Oc1ccc2ccccc2c1OCc1nnc(CCCCCCCCc2nnc(COc3c(O)ccc4ccccc34)o2)o1`, for which the GI50 in test [1] is > 100 µM (inactive).
On the same count and under the same terms, the figure for `O=C(O)c1cccc(C(=O)O)c1[S+]([O-])Cc1ccccc1` (centres undefined) is > 100 µM (inactive); for `CC#CCCCC1(C)CCNC1=S` (centres undefined) it is > 10 µM (inactive).
On to `COC(=O)/C=C1/OC(c2ccccc2)=CC1=O`, for which the GI50 in test [1] is 17.3 µM (inactive).
The same measure, in the same setting: the result for `C=C(C)OCOCCOC` reads > 100 µM (inactive); that for `COc1ccc(-c2oc3cc(-c4cc5oc(-c6ccc(OC)cc6)c(-c6ccc(OC)cc6)c5cc4OC)c(OC)cc3c2-c2ccc(OC)cc2)cc1`, > 100 µM (inactive).
For `N#CC(C#N)=C1C(C#N)=C(N)NC12OCCO2`, in test [1], the GI50 is > 100 µM (inactive).
Turning to `CC1(C)N=C(N)N=C(N)N1c1ccc(CCCCc2ccc(S(=O)(=O)F)cc2Cl)c(Cl)c1`, the GI50 in test [1] is 0.916 µM (active); in test [3] it was 1.49 µM (inactive); in test [4], 6.76 µM (inactive); in test [8], 53.7 µM (inactive); in test [5], 11.6 µM (inactive); in test [6], 0.458 µM (active). Further, the GI50 in test [7] is 0.352 µM (active).
On to `CC12Nc3c(Cl)cc(Cl)cc3N1C(=O)c1ccccc12` (centres undefined), for which the GI50 in test [1] is > 100 µM (inactive).
In the case of `COC(=O)C1=C(C)N(NC(=O)Nc2ccccc2)C2(N)N(NC(=O)Nc3ccccc3)C(C)=C(C(=O)OC)C12C(=O)OC` (centres undefined), the GI50 is 62.5 µM (inactive) in test [2]; > 100 µM (inactive) in test [4]; 81.8 µM (inactive) in test [8]; 26.1 µM (inactive) in test [5]; 77.1 µM (inactive) in test [6]; 40.3 µM (inactive) in test [7].
As for `CN(C)Cc1cc(C(=O)/C=C/c2ccc(F)cc2)cc(CN(C)C)c1O`, in test [1], the GI50 was > 10 µM (inactive).
On the same count and under the same terms, the figure for `O=c1c2ccccc2n2n1Cc1ccccc1C2` is > 100 µM (inactive).
Still for that read-out and setting: the figure for `c1ccc2[nH]c3[nH]c4[nH]c5ccccc5[nH]c4[nH]c3[nH]c2c1` is > 100 µM (inactive).
As to `ON(CCc1ccccn1)Cc1ccccc1`, the GI50 in test [1] is > 100 µM (inactive).
`CC(C)N(C(=O)C12C3(C(=O)OC(C)(C)C)C4C5(C#N)C3C1(C(=O)OC(C)(C)C)C5C42C(=O)OC(C)(C)C)C(C)C` (centres undefined): the GI50 in test [1] is 19.1 µM (inactive).
The same measure, in the same setting: the figure for `O=C1C(=O)c2c(oc(=O)c3ccccc23)-c2ccccc21` is 24.4 µM (inactive); for `Oc1cc(Cl)cc2cc(Br)cnc12` it is 2.3 µM (inactive).
On to `C[C@]12CCC(=O)C=C1CC[C@@H]1C2CC[C@]2(C)NC(=O)C(C#N)CC12` (some centres undefined), for which the GI50 was > 100 µM (inactive) in test [2]; > 100 µM (inactive) in test [3]; 53.6 µM (inactive) in test [4]; > 100 µM (inactive) in test [5]; > 100 µM (inactive) in test [6]; > 100 µM (inactive) in test [7].
As to `CC1CCC(=O)C(C(O)CC2CC(=O)N(c3ccccc3)C(=O)C2)C1` (centres undefined), the GI50 in test [2], in test [4], in test [8], in test [5], in test [6] and in test [7] was > 100 µM (inactive) each time.

For the origin of these results see ChEMBL document CHEMBL1201862, “PubChem BioAssay data set” (2004).
